Data: ChEMBL document CHEMBL2074071, “Fluorescent modified phosphatidylcholine floppase activity of reconstituted multidrug resistance-associated protein MRP1” (Biochim Biophys Acta, 2004)

Target: Multidrug resistance-associated protein 1 (Homo sapiens, UniProt P33527)
Experiment: TP_TRANSPORTER: translocation from outer to inner leaflet in MRP1-asolectin proteoliposome
Format: functional, subcellular

Sequence of Multidrug resistance-associated protein 1 (P33527 whole entry): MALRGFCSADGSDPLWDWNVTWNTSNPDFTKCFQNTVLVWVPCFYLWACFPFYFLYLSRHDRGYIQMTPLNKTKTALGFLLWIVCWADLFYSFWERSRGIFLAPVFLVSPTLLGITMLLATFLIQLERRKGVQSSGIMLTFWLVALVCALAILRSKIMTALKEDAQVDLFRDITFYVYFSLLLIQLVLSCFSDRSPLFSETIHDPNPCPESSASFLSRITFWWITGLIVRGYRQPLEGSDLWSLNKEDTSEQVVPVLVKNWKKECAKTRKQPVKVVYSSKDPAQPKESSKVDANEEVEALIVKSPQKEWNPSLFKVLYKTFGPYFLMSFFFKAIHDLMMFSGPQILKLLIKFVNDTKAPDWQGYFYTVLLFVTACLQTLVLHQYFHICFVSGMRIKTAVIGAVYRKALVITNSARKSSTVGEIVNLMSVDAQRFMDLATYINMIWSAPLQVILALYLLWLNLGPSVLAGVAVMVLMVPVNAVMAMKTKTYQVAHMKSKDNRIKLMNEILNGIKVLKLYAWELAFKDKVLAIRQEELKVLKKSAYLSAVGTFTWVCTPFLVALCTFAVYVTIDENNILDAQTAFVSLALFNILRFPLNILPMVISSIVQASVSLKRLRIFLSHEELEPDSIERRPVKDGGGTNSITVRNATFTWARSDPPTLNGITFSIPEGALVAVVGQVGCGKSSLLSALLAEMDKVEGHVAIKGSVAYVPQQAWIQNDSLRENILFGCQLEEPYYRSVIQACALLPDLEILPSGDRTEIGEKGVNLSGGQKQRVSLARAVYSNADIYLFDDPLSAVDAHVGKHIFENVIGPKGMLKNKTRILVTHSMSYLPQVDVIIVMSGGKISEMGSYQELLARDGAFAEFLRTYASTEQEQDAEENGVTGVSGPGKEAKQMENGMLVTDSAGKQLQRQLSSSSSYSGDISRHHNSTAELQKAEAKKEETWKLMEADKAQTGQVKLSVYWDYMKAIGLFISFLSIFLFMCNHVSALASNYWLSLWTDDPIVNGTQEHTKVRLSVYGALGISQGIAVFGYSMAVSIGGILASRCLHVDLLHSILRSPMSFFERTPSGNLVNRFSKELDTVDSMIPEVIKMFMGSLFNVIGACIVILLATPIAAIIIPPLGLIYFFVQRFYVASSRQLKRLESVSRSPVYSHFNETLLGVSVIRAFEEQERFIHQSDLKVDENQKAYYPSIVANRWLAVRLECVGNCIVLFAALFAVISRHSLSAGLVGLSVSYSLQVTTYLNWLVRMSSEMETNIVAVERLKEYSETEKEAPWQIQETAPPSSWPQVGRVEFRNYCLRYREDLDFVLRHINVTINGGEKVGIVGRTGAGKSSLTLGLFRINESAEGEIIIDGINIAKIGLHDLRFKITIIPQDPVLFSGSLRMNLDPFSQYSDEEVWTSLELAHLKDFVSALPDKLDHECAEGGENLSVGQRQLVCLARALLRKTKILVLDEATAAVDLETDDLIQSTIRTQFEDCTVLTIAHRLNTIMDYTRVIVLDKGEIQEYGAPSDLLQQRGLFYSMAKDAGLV

For `CCCCCC(=O)OCC(COP(=O)([O-])OCC[N+](C)(C)c1ccc([N+](=O)[O-])c2nonc12)OC(=O)CCCCC` (stereo unspecified), the Activity was “substrate []”.
